What all share (format): in vitro ADME
One series deals with T1, CYP2D6 (Homo sapiens, UniProt P10635).
T1 construct: Pooled human liver microsomes (from sixteen individuals) were used as the source of enzymes; tissue XenoTech, LLC; host or cells: human liver microsomes, pool of sixteen donors
Briefly: CYP2D6 inhibition, dextromethorphan O-demethylation in human liver microsomes. As to conditions: for Potential for Time-Dep. Inhibition: comparison with and without 30-minute pre-incubation; for inhibition at 5 min, 100 µM: human, pH 7.4, probe dextromethorphan (O-demethylation). The method, then:
(§1) The basis for many of the following incubation conditions is described in the following references: Madan, et al., 2002,^(1) Huang, 2004,^(3) Ogilvie, et al., 2006,^(6) Pearce, et al., 1996,^(7) Tucker, et al., 2001,^(4) and Walsky and Obach, 2004.^(5) In general, incubations were conducted at approximately 37° C. in 400-μL incubation mixtures (target pH 7.4) containing high purity water, potassium phosphate buffer (50 mM), MgCl2 (3 mM), EDTA (1 mM), an NADPH-generating system [always the mixture of the following: NADP (1 mM), glucose-6-phosphate (5 mM), glucose-6-phosphate dehydrogenase (1 Unit/mL)], and marker substrate at the final concentrations indicated. Pooled human liver microsomes (from sixteen individuals) were used as the source of enzymes (Section 1.3.1.2). The concentrations of marker substrates were based on the Km and Vmax data that were determined previously (data not shown).
(§2) Due to the possibility that boceprevir may bind to microsomal protein or lipids, an attempt was made to design these experiments such that, in as many cases as possible, the microsomal protein, incubation time, and phosphate buffer concentration were 0.1 mg/mL, 5 minutes and 50 mM, respectively, for assays performed with human liver microsomes (Table 1). […] Since it is not imperative that the concentration of marker substrates be exactly equal to Km, the marker substrate concentrations were rounded up or down, as applicable, to simplify the experimental design (data not shown). […] Thus, the final incubation concentration of phenacetin was 60 μM (Table 1).
(§3) The ability of boceprevir to inhibit the CYP enzymes listed in Section 1.2.1 was investigated with a pool of sixteen individual human liver microsomal samples at the concentrations indicated in Table 1. Aliquots of the stock and/or working solutions of boceprevir were manually added to buffer mixtures containing the components described in Section 1.3.21. Incubation mixtures were prepared in bulk to obviate the need for directly pipetting very small volumes (i.e., 1 μL or less). Incubations containing no boceprevir (0 μM) contained the vehicle used to dissolve boceprevir (i.e., 1% methanol).
(§4) The Tecan liquid handling system conducted all remaining incubation steps, with the exception of the centrifugation. Aliquots of the buffer mixtures were then automatically added to 96-well plates at the appropriate locations in duplicate. Aliquots of a substrate working solution were added to the 96-well plates, prior to initiating reactions, to give the final concentrations indicated in Table 1. Reactions were initiated with the addition of an aliquot of an NADPH-generating system. Reactions were automatically terminated at approximately 5 minutes, by the addition of the appropriate internal standard (Table 5) and stop reagent; acetonitrile. Precipitated protein was removed by centrifugation (920 g for 10 minutes at 10° C.). Standards and quality control samples were similarly prepared with the addition of authentic metabolite standards.
(§5) To examine its ability to act as a time-dependent inhibitor, boceprevir (at the same concentrations used to evaluate direct inhibition) was pre-incubated at 37±1° C., in duplicate, with human liver microsomes and an NADPH-generating system for approximately 30 minutes. This pre-incubation allowed for the generation of intermediates that could inhibit human CYP enzymes. The pre-incubations were initiated with the addition of an aliquot of an NADPH-generating system. […] Reactions were automatically terminated, at approximately 5 minutes, by the addition of the appropriate internal standard (Table 5) and stop reagent; acetonitrile. Precipitated protein was removed by centrifugation (920 g for 10 minutes at 10° C.). Incubations containing no boceprevir (0 μM) and incubations that contained boceprevir but were not pre-incubated, served as negative controls.
For orientation: Liver microsomes are vesicles of endoplasmic reticulum, rich in cytochrome P450 enzymes.

The target in a further series is T2, CYP2A6 (Homo sapiens, UniProt P11509).
T2 construct: Pooled human liver microsomes (from sixteen individuals) were used as the source of enzymes; tissue XenoTech, LLC; host or cells: human liver microsomes, pool of sixteen donors
T2 sequence (P11509 1-494): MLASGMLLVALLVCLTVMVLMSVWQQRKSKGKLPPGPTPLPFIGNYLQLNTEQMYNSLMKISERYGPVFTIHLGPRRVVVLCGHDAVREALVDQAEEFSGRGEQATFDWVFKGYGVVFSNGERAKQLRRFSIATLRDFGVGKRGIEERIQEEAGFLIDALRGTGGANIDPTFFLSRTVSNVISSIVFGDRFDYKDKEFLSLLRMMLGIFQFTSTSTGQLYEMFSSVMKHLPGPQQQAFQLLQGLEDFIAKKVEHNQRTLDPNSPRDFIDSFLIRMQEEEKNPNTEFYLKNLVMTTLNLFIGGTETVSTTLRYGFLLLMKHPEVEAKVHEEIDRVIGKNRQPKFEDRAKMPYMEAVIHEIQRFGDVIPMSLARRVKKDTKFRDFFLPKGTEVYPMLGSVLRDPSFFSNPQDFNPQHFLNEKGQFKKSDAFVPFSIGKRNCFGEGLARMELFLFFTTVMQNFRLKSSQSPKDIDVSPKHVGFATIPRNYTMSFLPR
Briefly: CYP2A6 inhibition, coumarin 7-hydroxylation in human liver microsomes. As to conditions: for Potential for Time-Dep. Inhibition: comparison with and without 30-minute pre-incubation; for inhibition at 5 min, 100 µM: human, pH 7.4, probe coumarin (7-hydroxylation). The method, then: as §1, §2, §3, §4, §5

For the next series, the system named is CYP3A4/5. Briefly: CYP3A4/5 inhibition, testosterone 6β-hydroxylation in human liver microsomes. As to conditions: for Potential for Time-Dep. Inhibition: comparison with and without 30-minute pre-incubation; for IC50 at 5 min / inhibition at 5 min, 100 µM: human, pooled human liver microsomes, pH 7.4, probe testosterone (6β-hydroxylation). The method, then:
as §1, §2, §3, §4, §5

Another series deals with T3, CYP2E1 (Homo sapiens, UniProt P05181).
T3 construct: Pooled human liver microsomes (from sixteen individuals) were used as the source of enzymes; tissue XenoTech, LLC; host or cells: human liver microsomes, pool of sixteen donors
T3 sequence (P05181 whole entry): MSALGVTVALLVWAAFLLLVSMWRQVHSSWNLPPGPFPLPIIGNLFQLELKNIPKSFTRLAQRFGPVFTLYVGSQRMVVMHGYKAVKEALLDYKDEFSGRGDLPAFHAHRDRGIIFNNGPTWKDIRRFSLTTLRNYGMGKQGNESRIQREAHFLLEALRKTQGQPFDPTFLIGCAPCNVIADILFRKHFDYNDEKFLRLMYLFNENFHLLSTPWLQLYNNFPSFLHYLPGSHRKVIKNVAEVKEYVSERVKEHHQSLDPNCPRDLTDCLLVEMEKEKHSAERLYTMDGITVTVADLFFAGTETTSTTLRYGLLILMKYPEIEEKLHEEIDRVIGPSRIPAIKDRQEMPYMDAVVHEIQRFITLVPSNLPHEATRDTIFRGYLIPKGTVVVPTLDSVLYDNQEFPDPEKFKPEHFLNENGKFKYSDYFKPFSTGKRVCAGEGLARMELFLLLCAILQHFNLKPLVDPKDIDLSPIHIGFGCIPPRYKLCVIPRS
Briefly: CYP2E1 inhibition, chlorzoxazone 6-hydroxylation in human liver microsomes. Particulars: for Potential for Time-Dep. Inhibition: comparison with and without 30-minute pre-incubation. The method, then: as §1, §2, §3
The Tecan liquid handling system conducted all remaining incubation steps, with the exception of the centrifugation. Aliquots of the buffer mixtures were then automatically added to 96-well plates at the appropriate locations in duplicate. Aliquots of a substrate working solution were added to the 96-well plates, prior to initiating reactions, to give the final concentrations indicated in Table 1. Reactions were initiated with the addition of an aliquot of an NADPH-generating system. […]

Where [1] appears, read: direct inhibition, zero-minute pre-incubation, pooled human liver microsomes.
Where [2] appears, read: pooled human liver microsomes, direct inhibition, zero-minute pre-incubation, read-out: Max. Inhib. at 100 μM.
[3] abbreviates: pooled human liver microsomes, time-dependent inhibition, 30-minute pre-incubation, read-out: Maximum Inhibition at 100 μM.
Where [4] appears, read: time-dependent inhibition, 30-minute pre-incubation.

The values that follow come from US20140162942A1, “INHIBITION OF CYP3A DRUG METABOLISM” (priority 2010, published 2014).

Structures are written as SMILES. Read-outs that look alike come from different tables or passages of the source.

T1 sequence (P10635 whole entry): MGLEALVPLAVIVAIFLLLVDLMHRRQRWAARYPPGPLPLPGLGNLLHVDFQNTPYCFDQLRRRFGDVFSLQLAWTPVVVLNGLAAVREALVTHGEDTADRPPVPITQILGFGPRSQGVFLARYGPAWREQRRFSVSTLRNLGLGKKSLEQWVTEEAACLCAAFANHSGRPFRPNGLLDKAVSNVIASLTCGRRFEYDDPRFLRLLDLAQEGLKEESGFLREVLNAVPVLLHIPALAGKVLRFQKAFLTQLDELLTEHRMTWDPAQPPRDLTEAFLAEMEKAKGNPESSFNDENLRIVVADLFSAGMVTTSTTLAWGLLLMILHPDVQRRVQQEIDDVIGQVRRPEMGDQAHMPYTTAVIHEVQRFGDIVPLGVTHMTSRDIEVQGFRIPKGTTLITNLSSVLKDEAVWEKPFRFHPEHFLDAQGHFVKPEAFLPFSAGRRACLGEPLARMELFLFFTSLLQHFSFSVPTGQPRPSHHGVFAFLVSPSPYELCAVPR

For the compound `CC(C)(C)NC(=O)NC(C(=O)N1CC2C([C@H]1C(=O)NC(CC1CCC1)C(=O)C(N)=O)C2(C)C)C(C)(C)C` (stereo partly drawn) [Boceprevir, (1R,2S,5S)—N-[(2Ξ)-4-amino-1-cyclobutyl-3,4-dioxobutan-2-yl]-3-{(2S)-2-[(tert-butylcarbamoyl)amino]-3,3-dimethylbutanoyl}-6,6-dimethyl-3-azabicyclo[3.1.0]hexane-2-carboxamide], the “Potential for Time-Dep. Inhibition” value at CYP2D6 is reported as “little or no”; on CYP2D6 (listed as boceprevir), “no discernable time-dependent inhibition”; at CYP2A6 it was “little or no”; at CYP2A6 (listed as boceprevir) it was “no discernable time-dependent inhibition”; with CYP3A4/5, “yes^c”; in the series on CYP3A4/5 (listed as boceprevir) it was “caused time-dependent inhibition”. The “Potential for Time-Dep. Inhibition” value was “little or no” at CYP2E1 and “no discernable time-dependent inhibition” on CYP2E1 (listed as boceprevir). Besides, the IC50 against CYP2D6 (setting [1]), on CYP2D6 (setting [4]), at CYP2A6 (setting [1]), against CYP2A6 (setting [4]), against CYP2E1 (setting [1]) and against CYP2E1 (setting [4]) was over 100 µM each time. The inhibition at 5 min, 100 µM at CYP2D6 (setting [2]) was 45%; on CYP2D6 (setting [3]) it was 30%; on CYP2A6 (setting [2]), 20%; at CYP2A6 (setting [3]) it was 7.8%; with CYP3A4/5 (direct inhibition, zero-minute pre-incubation, read-out: Max. Inhib. at 100 μM) it was 41%; with CYP3A4/5 (time-dependent inhibition, 30-minute pre-incubation, read-out: Maximum Inhibition at 100 μM), 95%. Moreover, the IC50 at 5 min in the series with CYP3A4/5 (direct inhibition, zero-minute pre-incubation) is over 100 µM; with CYP3A4/5 (setting [4]), 2.3 µM.

One may read the IC50 as the concentration that inhibits the measured activity by half.
